The results in this text go back to patent EP0887339A1, “Azulene derivatives and medicaments containing them” (BOEHRINGER MANNHEIM GMBH, priority 1997, dated 1998).

Broadly, the IC50 is the concentration that gives 50% inhibition. Read a high IC50 as lower potency.

SMILES strings stand for the structures.

The target in this experiment is TNF-α. Briefly: Inhibition of TNFα in culture supernatant of LPS-stimulated peripheral human leukocytes, TNFα-specific enzyme immunoassay. Format: cell-based. The conditions noted are these: Periphere humane Leukozyten, LPS über 22 Std., Kulturüberstand. An excerpt: […] humane Leukozyten werden mit LPS über 22 Std. inkubiert. Der Kulturüberstand wird mit einem TNFα spezifischen Enzym-Immuno-Assay untersucht. Durch Vergleich der für die Messproben erhaltenen TNFα-Konzentrationen mit den ungehemmten Proben wird die prozentuale Hemmung fiir die einzelne Probe berechnet. Aus der […]. Der IC50-Wert läßt sich wie folgt ermitteln: v = v0 /(1 + [I] / IC50 ) [formula] • v = […]0 = […] ohne Inhibitor • [I] = […] IC50-Werte, der in den Beispielen beschriebenen Substanzen gegen TNF-α finden sich in der folgenden Tabelle:

`CC(=O)N(C(C)=O)c1c(C(=O)OC(C)(C)C)c2ccc(C(C(=O)OC(C)(C)C)C(=O)OC(C)(C)C)ccc-2c1C(=O)OC(C)(C)C` [Beispiel 11, 6-(Bis-tert-butoxycarbonyl-methyl)-2-diacetylamino-azulene-1,3-dicarbonsäure-di-tert-butylester]: the midpoint of inhibition, the IC50, lay at 4200 nM.

On to `CC(=O)N(C(C)=O)c1c(C(=O)OC(C)(C)C)c2ccc(Br)ccc-2c1C(=O)OC(C)(C)C` [Beispiel 10, 2-Diacetylamino-6-bromo-azulen-1,3-dicarbonsäure-di-tert-butylester], for which the IC50 was determined as 500 nM.

As to `CC(C)(C)OC(=O)c1c2ccc(Br)ccc-2c(C(=O)OC(C)(C)C)c1N` [Beispiel 9, 2-Amino-6-bromo-azulen-1,3-dicarbonsäure-di-tert-butylester], the IC50 was 2300 nM.

The compound `CCOC(=O)c1c2ccc(CC(=O)NO)ccc-2c(C(=O)OCC)c1NC(C)=O` [Beispiel 5, 2-Acetylamino-6-hydroxycarbamoylmethyl-azulen-1,3-dicarbonsäurediethylester] gave an IC50 of 20 nM.

As to `CCOC(=O)c1c2ccc(CC(=O)O)ccc-2c(C(=O)OCC)c1N` [Beispiel 1, 2-Amino-6-carboxylmethyl-azulen-1,3-dicarbonsäurediethylester], the IC50 turned out to be 160 nM.

The compound `CCOC(=O)c1c2ccc(CC(=O)O)ccc-2c(C(=O)OCC)c1NC(C)=O` [Beispiel 4, 2-Acetylamino-6-carboxymethyl-azulen-1,3-dicarbonsäurediethylester] registered an IC50 of 4100 nM.

`CCOC(=O)c1c2cccccc-2c(C(=O)OC(C)(C)C)c1N` [Beispiel 8, 2-Amino-azulen-1,3-dicarbonsäure-tert-butyl-ethylester] returned a half-maximal inhibitory concentration (IC50) of 8000 nM. Against the preceding compound, the IC50 is about 2-fold higher.

Compound `CCOC(=O)c1c2ccc(C(C(=O)NC(N)=O)C(=O)OCC)ccc-2c(C(=O)OCC)c1N` (centres unmarked) [Beispiel 6, 2-Amino-6-(1-ethoxycarbonyl-2-oxo-2-ureido-ethyl)-azulen-1,3-dicarbonsäurediethylester] came in with an IC50 of 15000 nM.

Regarding `CCOC(=O)c1c2ccc(CC(=O)O)ccc-2c(C(=O)O)c1N` [Beispiel 2, 2-Amino-6-carboxylmethyl-azulen-1,3-dicarbonsäuremonoethylester], the IC50 came out at 10500 nM.

As for `CC(C)(C)OC(=O)c1c2cccccc-2c(C(=O)OC(C)(C)C)c1N` [Beispiel 7, 2-Amino-azulen-1,3-dicarbonsäure-di-tert-butylester], the IC50 turned out to be 2800 nM. Against the preceding compound, the IC50 is about 3.8-fold lower.

With `CCOC(=O)c1c2ccc(CC(=O)NO)ccc-2c(C(=O)OCC)c1N` [Beispiel 3, 2-Amino-6-hydroxycarbamoylmethyl-azulen-1,3-dicarbonsäurediethylester], the IC50 amounted to 1 nM.
